Laboratory results taken from US20250145625A1, “PYRAZOLOPYRIMIDINE DERIVATIVE AND ANTICANCER PHARMACEUTICAL COMPOSITION CONTAINING SAME AS ACTIVE INGREDIENT” (KOREA RESEARCH INSTITUTE OF CHEMICAL TECHNOLOGY, priority 2021, published 2025).
pIC50: −log10 of the molar value.

Tests used:
[1] = test system: HCT116 colon cancer cell line; assay: Cytotoxicity in TTK-expressed HCT116 cells; format: cell-based; settings: Homo sapiens, HCT-116, 120 h, 5 days
Description: To determine the cytotoxicity of a compound represented by Chemical Formula 1 according to the present invention to HCT116 cells, the following test was conducted.
HCT116 colon cancer cell line purchased from ATCC was inoculated into each well of a 96-well plate at a volume of 90 μL containing 2,000 cells. Thereafter, an example compound of the present invention was added to respective wells at concentrations of […], 3 μM, 1 μM, 0.3 μM, 0.1 μM, and 0 μM, and the cells were cultured in a cell incubator at 37° C. for 5 days. After 5 days, the number of cells was measured by CCK8 test method, and the cytotoxicity was determined by calculating the IC50 value for cytotoxicity of each compound.

[2] = target: recombinant human TTK protein (Homo sapiens (Human), UniProt P33981); assay: Evaluation of TTK activity inhibitory ability (scintillation counting); format: biochemical; settings: TTK inhibitory activity; read-out: IC50;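 also: reaction stopped with 0.5% phosphoric acid, spotted on P30 filter, TTK activity counted by scintillation, uninhibited no-compound wells taken as 100% control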
recombinant human TTK protein, sequence (P33981 whole entry): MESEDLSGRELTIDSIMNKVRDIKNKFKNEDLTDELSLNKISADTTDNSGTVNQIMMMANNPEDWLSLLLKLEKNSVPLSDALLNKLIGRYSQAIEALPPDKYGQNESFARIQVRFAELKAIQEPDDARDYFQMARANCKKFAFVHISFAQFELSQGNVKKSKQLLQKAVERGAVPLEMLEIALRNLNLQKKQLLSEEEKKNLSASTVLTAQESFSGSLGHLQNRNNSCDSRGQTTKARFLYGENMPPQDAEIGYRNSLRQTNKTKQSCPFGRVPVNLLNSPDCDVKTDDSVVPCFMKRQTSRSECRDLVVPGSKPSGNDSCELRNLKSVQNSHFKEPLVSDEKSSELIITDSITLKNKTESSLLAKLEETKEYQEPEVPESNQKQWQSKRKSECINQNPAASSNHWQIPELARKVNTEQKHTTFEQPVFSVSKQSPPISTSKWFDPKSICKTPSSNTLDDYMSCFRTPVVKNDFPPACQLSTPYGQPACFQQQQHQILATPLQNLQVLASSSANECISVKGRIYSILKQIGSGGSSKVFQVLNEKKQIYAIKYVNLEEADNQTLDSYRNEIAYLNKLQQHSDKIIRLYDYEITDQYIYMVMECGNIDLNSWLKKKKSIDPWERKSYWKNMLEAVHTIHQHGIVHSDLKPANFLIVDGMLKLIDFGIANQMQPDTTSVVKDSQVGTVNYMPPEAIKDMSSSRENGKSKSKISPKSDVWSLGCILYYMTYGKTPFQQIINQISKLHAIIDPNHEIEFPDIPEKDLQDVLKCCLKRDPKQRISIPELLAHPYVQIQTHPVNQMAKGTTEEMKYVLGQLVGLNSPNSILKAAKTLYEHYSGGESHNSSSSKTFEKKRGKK
Description: To determine the ability of a compound represented by Chemical Formula 1 according to the present invention to inhibit TTK activity, the following experiment was conducted.
After that, the reaction was terminated by adding phosphoric acid to a concentration of 0.5%, and 10 of the reaction solution was dropped onto a P30 filter. […] The activity of TTK was measured through scintillation counting. The activity value from the group with no compound was set as 100% of control, and the degree of TTK inhibition by the compound was calculated.

[3] = test system: MDA-MB-231 triple negative breast cancer cell line; assay: Cytotoxicity in TTK-expressed MDA-MB-231 cells; format: cell-based; settings: Homo sapiens, MDA-MB-231, 120 h, 5 days
Description: To determine the cytotoxicity of a compound represented by Chemical Formula 1 according to the present invention to MDA-MB-231 cells, the following test was conducted.
MDA-MB-231 triple negative breast cancer cell line purchased from ATCC was inoculated into each well of a 96-well plate at a volume of 90 μL containing 2,000 cells. Thereafter, an example compound of the present invention was added to respective wells at concentrations of 10 μM, 3 μM, 1 μM, 0.3 μM, 0.1 μM, and 0 μM, and the cells were cultured in a cell incubator at 37° C. for 5 days. Five days later, 10 μL of Cyto X solution (manufacturer: LPS Solution) was added to each of the wells, and the absorbance was measured at 450 nm using an Epoch microplate spectrophotometer (manufacturer: BioTek Instruments Inc.) according to the product's user guide. For cytotoxicity, the IC50 value for cytotoxicity of each compound was calculated by quantifying the number of cells using the measured value.

SMILES | pIC50 [2] | IC50 [1] [nM] | IC50 [3] [nM]
COc1cc(N2CCOCC2)ccc1Nc1nc(NC2CCOCC2)c2c(-c3cccnc3)n[nH]c2n1 [Compound 8-27, N^6-(2-methoxy-4-morpholinophenyl)-3-(pyridin-3-yl)-N^4-(tetrahydro-2H-pyran-4-yl)-1H-pyrazolo[3,4-d]pyrimidine-4,6-diamine] | > 7.52 | 500 to 1000 | 500 to 1000
COc1cc(N2CCOCC2)ccc1Nc1nc(NC2CCOCC2)c2c(-c3ccncc3)n[nH]c2n1 [Compound 8-28, N^6-(2-methoxy-4-morpholinophenyl)-3-(pyridin-4-yl)-N^4-(tetrahydro-2H-pyran-4-yl)-1H-pyrazolo[3,4-d]pyrimidine-4,6-diamine] | > 7.52 | 150 to 500 | 150 to 500
COc1cc(N2CCOCC2)ccc1Nc1nc(NCC2CCCO2)c2c(-c3cnn(C)c3)n[nH]c2n1 (stereo not drawn) [Compound 8-34, N^6-(2-methoxy-4-morpholinophenyl)-3-(1-methyl-1H-pyrazol-4-yl)-N^4-((tetrahydrofuran-2-yl)methyl)-1H-pyrazolo[3,4-d]pyrimidine-4,6-diamine] | > 7.52 | > 1000 | > 1000
COc1cc(N2CCOCC2)ccc1Nc1nc(NCC2CCCO2)c2c(-c3cnoc3)n[nH]c2n1 (stereo not drawn) [Compound 8-35, 3-(Isoxazol-4-yl)-N^6-(2-methoxy-4-morpholinophenyl)-N^4-((tetrahydrofuran-2-yl)methyl)-1H-pyrazolo[3,4-d]pyrimidine-4,6-diamine] | > 7.52 | > 1000 | > 1000
COc1cc(-c2nncn2C)ccc1Nc1nc(NC2CCCCC2)c2c(-c3cnn(C)c3)n[nH]c2n1 [Compound 11-2, N^4-cyclohexyl-N^6-(2-methoxy-4-(4-methyl-4H-1,2,4-triazol-3-yl)phenyl)-3-(1-methyl-1H-pyrazol-4-yl)-1H-pyrazolo[3,4-d]pyrimidine-4,6-diamine] | > 7.52 | < 150 | < 150
CNC(=O)c1ccc(Nc2nc(NC3CCCCC3)c3c(-c4cnn(C)c4)n[nH]c3n2)c(OC)c1 [Compound 11-3, 4-((4-(cyclohexylamino)-3-(1-methyl-1H-pyrazol-4-yl)-1H-pyrazolo[3,4-d]pyrimidin-6-yl)amino)-3-methoxy-N-methylbenzamide] | > 7.52 | 150 to 500 | < 150
COc1cc(C(=O)N2CCOCC2)ccc1Nc1nc(NC2CCCCC2)c2c(-c3cnn(C)c3)n[nH]c2n1 [Compound 11-4, (4-((4-(cyclohexylamino)-3-(1-methyl-1H-pyrazol-4-yl)-1H-pyrazolo[3,4-d]pyrimidin-6-yl)amino)-3-methoxyphenyl)(morpholino)methanone] | > 7.52 | 150 to 500 | 150 to 500
COc1cc(C(=O)N2CCN(C)CC2)ccc1Nc1nc(NC2CCCCC2)c2c(-c3cnn(C)c3)n[nH]c2n1 [Compound 11-5, (4-((4-(cyclohexylamino)-3-(1-methyl-1H-pyrazol-4-yl)-1H-pyrazolo[3,4-d]pyrimidin-6-yl)amino)-3-methoxyphenyl)(4-methylpiperazin-1-yl)methanone] | 7.00 to 7.52 | 150 to 500 | 500 to 1000

Continued, in another order:

pIC50 [2] | SMILES | IC50 [1] [nM] | IC50 [3] [nM]
7.00 to 7.52 | COc1cc(N2CCOCC2)ccc1Nc1nc(NC2CCCCC2)c2c(-c3nncn3C)n[nH]c2n1 [Compound 14-1, N^4-cyclohexyl-N^6-(2-methoxy-4-morpholinophenyl)-3-(4-methyl-4H-1,2,4-triazol-3-yl)-1H-pyrazolo[3,4-d]pyrimidine-4,6-diamine] | 150 to 500 | < 150
7.00 to 7.52 | COc1cc(N2CCOCC2)ccc1Nc1nc(NC2CCCCC2)c2c(-c3nnco3)n[nH]c2n1 [Compound 14-2, N^4-cyclohexyl-N^6-(2-methoxy-4-morpholinophenyl)-3-(1,3,4-oxadiazol-2-yl)-1H-pyrazolo[3,4-d]pyrimidine-4,6-diamine] | 150 to 500 | 150 to 500
7.00 to 7.52 | COc1cc(N2CCOCC2)ccc1Nc1nc(NC2CCCCC2)c2c(-c3n[nH]c(=O)o3)n[nH]c2n1 [Compound 14-3, 5-(4-(cyclohexylamino)-6-((2-methoxy-4-morpholinophenyl)amino)-1H-pyrazolo[3,4-d]pyrimidin-3-yl)-1,3,4-oxadiazol-2(3H)-one] | < 150 | 150 to 500
> 7.52 | COc1cc(N2CCOCC2)ccc1Nc1nc(NC2CCCCC2)c2c(-c3cnco3)n[nH]c2n1 [Compound 18-1, N^4-cyclohexyl-N^6-(2-methoxy-4-morpholinophenyl)-3-(oxazol-5-yl)-1H-pyrazolo[3,4-d]pyrimidine-4,6-diamine] | < 150 | < 150
7.00 to 7.52 | COc1cc(N2CCOCC2)ccc1Nc1nc(NC2CCCCC2)c2c(-c3cnc[nH]3)n[nH]c2n1 [Compound 18-2, N^4-cyclohexyl-3-(1H-imidazol-5-yl)-N^6-(2-methoxy-4-morpholinophenyl)-1H-pyrazolo[3,4-d]pyrimidine-4,6-diamine] | 500 to 1000 | 500 to 1000
> 7.52 | COc1cc(N2CCOCC2)ccc1Nc1nc(NC2CCCCC2)c2c(-c3cn(C)nn3)n[nH]c2n1 [Compound 21-2, N^4-cyclohexyl-N^6-(2-methoxy-4-morpholinophenyl)-3-(1-methyl-1H-1,2,3-triazol-4-yl)-1H-pyrazolo[3,4-d]pyrimidine-4,6-diamine] | < 150 | < 150
7.00 to 7.52 | COc1cc(N2CCOCC2)ccc1Nc1nc(NC2CCOCC2)c2c(-c3cn(C)nn3)n[nH]c2n1 [Compound 21-3, N^6-(2-methoxy-4-morpholinophenyl)-3-(1-methyl-1H-1,2,3-triazol-4-yl)-N^4-(tetrahydro-2H-pyran-4-yl)-1H-pyrazolo[3,4-d]pyrimidine-4,6-diamine] | < 150 | 150 to 500
7.00 to 7.52 | CC(C)Oc1cc(N2CCOCC2)ccc1Nc1nc(NC2CCCCC2)c2c(-c3cnn(C)c3)n[nH]c2n1 [Compound 26-1, N^4-cyclohexyl-N^6-(2-isopropoxy-4-morpholinophenyl)-3-(1-methyl-1H-pyrazol-4-yl)-1H-pyrazolo[3,4-d]pyrimidine-4,6-diamine] | 500 to 1000 | 150 to 500
> 7.52 | COc1cc(N2CCOCC2)ccc1Nc1nc(Nc2ccccc2)c2c(-c3cnn(C)c3)n[nH]c2n1 [Compound 26-2, N^6-(2-methoxy-4-morpholinophenyl)-3-(1-methyl-1H-pyrazol-4-yl)-N^4-phenyl-1H-pyrazolo[3,4-d]pyrimidine-4,6-diamine] | > 1000 | > 1000
> 7.52 | COc1cc(N2CCOCC2)ccc1Nc1nc(NC2CCOCC2)c2c(-c3cnco3)n[nH]c2n1 [Compound 33-1, N^6-(2-methoxy-4-morpholinophenyl)-3-(oxazol-5-yl)-N^4-(tetrahydro-2H-pyran-4-yl)-1H-pyrazolo[3,4-d]pyrimidine-4,6-diamine] | < 150 | < 150
> 7.52 | CNC(=O)c1ccc(Nc2nc(NC3CCOCC3)c3c(-c4cnco4)n[nH]c3n2)c(OC)c1 [Compound 33-2, 3-methoxy-N-methyl-4-((3-(oxazol-5-yl)-4-((tetrahydro-2H-pyran-4-yl)amino)-1H-pyrazolo[3,4-d]pyrimidin-6-yl)amino)benzamide] | 500 to 1000 | 150 to 500
> 7.52 | COc1cc(-c2nncn2C)ccc1Nc1nc(NC2CCOCC2)c2c(-c3cnco3)n[nH]c2n1 [Compound 33-3, N^6-(2-methoxy-4-(4-methyl-4H-1,2,4-triazol-3-yl)phenyl)-3-(oxazol-5-yl)-N^4-(tetrahydro-2H-pyran-4-yl)-1H-pyrazolo[3,4-d]pyrimidine-4,6-diamine] | > 1000 | 500 to 1000
